Source: patent US8895585B2, “Nicotinamide derivative or salt thereof” (FUJIFILM Corporation, priority 2010, dated 2014)

These compounds were tested against T1, glutathione S-transferase (GST)-fused full-length human Syk protein (Homo sapiens, UniProt P43405) (assay: Syk enzyme assay). Details: Syk enzyme assay, Test Example 1; read-out: IC50 of Syk-inhibitory activity.
T1 construct: (GST)-fused full-length human Syk protein; GST (glutathione S-transferase); purchased Carna Biosciences
Type: biochemical
Procedure, shortened: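 IC50 values come from a time-resolved FRET readout (615 and 665 nm) of substrate phosphorylation, measured after an EDTA stop and 1 h antibody binding. The kinase reaction ran 40 min at room temperature with 27 μM ATP and 0.4 μM biotin-peptide, following a 15 min compound preincubation with baculovirus-made GST-full-length human Syk.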

Row | IC50 [nM] | SMILES
1 | 100 to 1000 | NC(=O)c1cc(F)c(N[C@@H]2CCCC[C@@H]2N)nc1Nc1cnc(-n2cccn2)c(-n2ccnn2)c1 [Example 006-450, 2-((6-(1H-pyrazol-1-yl)-5-(1H-1,2,3-triazol-1-yl)pyridin-3-yl)amino)-6-(((1R,2S)-2-aminocyclohexyl)amino)-5-fluoronicotinamide]
2 | < 10 | CCn1nc(C(C)C)c2cc(Nc3nc(N[C@@H]4CCCC[C@@H]4N)c(F)cc3C(N)=O)ccc21 [Example 006-462, 6-(((1R,2S)-2-aminocyclohexyl)amino)-2-((1-ethyl-3-isopropyl-1H-indazol-5-yl)amino)-5-fluoronicotinamide]
3 | < 10 | COCCn1nc(C(C)C)c2cc(Nc3nc(N[C@@H]4CCCC[C@@H]4N)c(F)cc3C(N)=O)ccc21 [Example 006-463, 6-(((1R,2S)-2-aminocyclohexyl)amino)-5-fluoro-2-((3-isopropyl-1-(2-methoxyethyl)-1H-indazol-5-yl)amino)nicotinamide]
4 | 10 to 50 | NC(=O)c1cc(F)c(N[C@@H]2CCCC[C@@H]2N)nc1Nc1ccc(N2CC3(COC3)C2)nc1 [Example 006-467, 2-((6-(2-oxa-6-azaspiro[3.3]heptane-6-yl)pyridin-3-yl)amino)-6-(((1R,2S)-2-aminocyclohexyl)amino)-5-fluoronicotinamide]
5 | < 10 | NC(=O)c1cc(F)c(N[C@@H]2CCCC[C@@H]2N)nc1Nc1ccc2c(F)nn(C3CC3)c2c1 [Example 006-476, 6-(((1R,2S)-2-aminocyclohexyl)amino)-2-((1-cyclopropyl-3-fluoro-1H-indazol-6-yl)amino)-5-fluoronicotinamide]
6 | < 10 | CCCc1nn(C2CC2)c2ccc(Nc3nc(N[C@@H]4CCCC[C@@H]4N)c(F)cc3C(N)=O)cc12 [Example 006-479, 6-(((1R,2S)-2-aminocyclohexyl)amino)-2-((1-cyclopropyl-3-propyl-1H-indazol-5-yl)amino)-5-fluoronicotinamide]
7 | 100 to 1000 | C[C@H](N)[C@@H](CC1CC1)Nc1nc(Nc2ccc3c(F)nn(C4CC4)c3c2)c(C(N)=O)cc1F [Example 006-481, 6-(((2R,3S)-3-amino-1-cyclopropylbutan-2-yl)amino)-2-((1-cyclopropyl-3-fluoro-1H-indazol-6-yl)amino)-5-fluoronicotinamide]
8 | < 10 | CCCc1nn(C2CC2)c2ccc(Nc3nc(N[C@H](CC4CC4)[C@H](C)N)c(F)cc3C(N)=O)cc12 [Example 006-482, 6-(((2R,3S)-3-amino-1-cyclopropylbutan-2-yl)amino)-2-((1-cyclopropyl-3-propyl-1H-indazol-5-yl)amino)-5-fluoronicotinamide]
9 | 50 to 100 | COCCn1nc(F)c2c(Nc3nc(N[C@H](CC4CC4)[C@H](C)N)c(F)cc3C(N)=O)cccc21 [Example 006-490, 6-(((2R,3S)-3-amino-1-cyclopropylbutan-2-yl)amino)-5-fluoro-2-((3-fluoro-1-(2-methoxyethyl)-1H-indazol-4-yl)amino)nicotinamide]
10 | 10 to 50 | C[C@H](N)[C@@H](CC1CC1)Nc1nc(Nc2cccc3c2c(F)nn3CCF)c(C(N)=O)cc1F [Example 006-491, 6-(((2R,3S)-3-amino-1-cyclopropylbutan-2-yl)amino)-5-fluoro-2-((3-fluoro-1-(2-fluoroethyl)-1H-indazol-4-yl)amino)nicotinamide]
11 | 10 to 50 | C[C@H](N)[C@@H](CC1CC1)Nc1nc(Nc2cccc3c2c(F)nn3CC(F)F)c(C(N)=O)cc1F [Example 006-492, 6-(((2R,3S)-3-amino-1-cyclopropylbutan-2-yl)amino)-2-((1-(2,2-difluoroethyl)-3-fluoro-1H-indazol-4-yl)amino)-5-fluoronicotinamide]
12 | 50 to 100 | NC(=O)c1cc(F)c(N[C@@H]2CCCC[C@@H]2N)nc1Nc1cnc(O)c(-n2nccn2)c1 [Example 006-504, 6-(((1R,2S)-2-aminocyclohexyl)amino)-5-fluoro-2-((6-hydroxy-5-(2H-1,2,3-triazol-2-yl)pyridin-3-yl)amino)nicotinamide]
13 | 50 to 100 | C[C@H](N)[C@H](Nc1nc(Nc2cnc3c(c2)OCO3)c(C(N)=O)cc1F)C1CC1 [Example 006-514, 2-([1,3]dioxolo[4,5-b]pyridin-6-ylamino)-6-(((1R,2S)-2-amino-1-cyclopropylpropyl)amino)-5-fluoronicotinamide]
14 | 50 to 100 | COCCOc1ncc(Nc2nc(N[C@@H]3CCCC[C@@H]3N)c(F)cc2C(N)=O)cc1-n1ccnn1 [Example 006-518, 6-(((1R,2S)-2-aminocyclohexyl)amino)-5-fluoro-2-((6-(2-methoxyethoxy)-5-(1H-1,2,3-triazol-1-yl)pyridin-3-yl)amino)nicotinamide]
15 | 50 to 100 | NC(=O)c1cc(F)c(N[C@@H]2CCCC[C@@H]2N)nc1Nc1cnc(N2CCOCC2)c(-n2cccn2)c1 [Example 006-527, 6-(((1R,2S)-2-aminocyclohexyl)amino)-5-fluoro-2-((6-morpholino-5-(1H-pyrazol-1-yl)pyridin-3-yl)amino)nicotinamide]
16 | 10 to 50 | NC(=O)c1cc(F)c(N[C@@H]2CCCC[C@@H]2N)nc1Nc1cnc(N2CCOCC2)c(C2CC2)c1 [Example 006-528, 6-(((1R,2S)-2-aminocyclohexyl)amino)-2-((5-cyclopropyl-6-morpholinopyridin-3-yl)amino)-5-fluoronicotinamide]
17 | 100 to 1000 | COc1cc(Nc2nc(N[C@@H]3COCC[C@@H]3N)c(F)cc2C(N)=O)ccn1 [Example 006-532, 6-(((3S,4S)-4-aminotrahydro-2H-pyran-3-yl)amino)-5-fluoro-2-((2-methoxypyridin-4-yl)amino)nicotinamide]
18 | 10 to 50 | NC(=O)c1cc(F)c(N[C@@H]2CCCC[C@@H]2N)nc1Nc1cnc(N2CCOCC2)c(-n2nccn2)c1 [Example 006-533, 6-(((1R,2S)-2-aminocyclohexyl)amino)-5-fluoro-2-((6-morpholino-5-(2H-1,2,3-triazol-2-yl)pyridin-3-yl)amino)nicotinamide]
19 | 100 to 1000 | NC(=O)c1cc(F)c(N[C@@H]2CCCC[C@@H]2N)nc1Nc1cnc(N2CCOCC2)c(-n2ccnn2)c1 [Example 006-534, 6-(((1R,2S)-2-aminocyclohexyl)amino)-5-fluoro-2-((6-morpholino-5-(1H-1,2,3-triazol-1-yl)pyridin-3-yl)amino)nicotinamide]
20 | 50 to 100 | NC(=O)c1cc(F)c(N[C@@H]2CCCC[C@@H]2N)nc1Nc1ccc(-n2ccnc2)nc1 [Example 006-535, 2-((6-(1H-imidazole-1-yl)pyridin-3-yl)amino)-6-(((1R,2S)-2-aminocyclohexyl)amino)-5-fluoronicotinamide]
21 | 100 to 1000 | Cc1nccn1-c1ccc(Nc2nc(N[C@@H]3CCCC[C@@H]3N)c(F)cc2C(N)=O)cn1 [Example 006-536, 6-(((1R,2S)-2-aminocyclohexyl)amino)-5-fluoro-2-((6-(2-methyl-1H-imidazol-1-yl)pyridin-3-yl)amino)nicotinamide]
22 | < 10 | CCc1nn(C)c2ccc(Nc3nc(N[C@H](CC(C)C)[C@H](C)N)c(F)cc3C(N)=O)cc12 [Example 006-538, 6-(((2S,3R)-2-amino-5-methylhexan-3-yl)amino)-2-((3-ethyl-1-methyl-1H-indazol-5-yl)amino)-5-fluoronicotinamide]
23 | < 10 | CCc1nn(CC)c2ccc(Nc3nc(N[C@H](CC(C)C)[C@H](C)N)c(F)cc3C(N)=O)cc12 [Example 006-540, 6-(((2S,3R)-2-amino-5-methylhexan-3-yl)amino)-2-((1,3-diethyl-1H-indazol-5-yl)amino)-5-fluoronicotinamide]
24 | < 10 | CC(C)C[C@@H](Nc1nc(Nc2ccc3c(c2)c(C(C)C)nn3C)c(C(N)=O)cc1F)[C@H](C)N [Example 006-542, 6-(((2S,3R)-2-amino-5-methylhexan-3-yl)amino)-5-fluoro-2-((3-isopropyl-1-methyl-1H-indazol-5-yl)amino)nicotinamide]
25 | < 10 | CCn1nc(C2CC2)c2cc(Nc3nc(N[C@H](CC4CC4)[C@H](C)N)c(F)cc3C(N)=O)ccc21 [Example 006-549, 6-(((2R,3S)-3-amino-1-cyclopropylbutan-2-yl)amino)-2-((3-cyclopropyl-1-ethyl-1H-indazol-5-yl)amino)-5-fluoronicotinamide]
26 | 10 to 50 | Cn1nc(N2CCOCC2)c2cc(Nc3nc(N[C@@H]4CCCC[C@@H]4N)c(F)cc3C(N)=O)ccc21 [Example 006-560, 6-(((1R,2S)-2-aminocyclohexyl)amino)-5-fluoro-2-((1-methyl-3-morpholino-1H-indazol-5-yl)amino)nicotinamide]
27 | < 10 | C[C@H](N)[C@@H](CC1CC1)Nc1nc(Nc2ccc3c(c2)c(N2CCOCC2)nn3C)c(C(N)=O)cc1F [Example 006-561, 6-(((2R,3S)-3-amino-1-cyclopropylbutan-2-yl)amino)-5-fluoro-2-((1-methyl-3-morpholino-1H-indazol-5-yl)amino)nicotinamide]

Row | SMILES | IC50 [nM]
28 | COc1cc(Nc2nc(NC3CN(C(=O)OCc4ccccc4)CCC3N)c(F)cc2C(N)=O)ccn1 [Example 006-529, (3R,4S)-benzyl 4-amino-3-((5-carbamoyl-3-fluoro-6-((2-methoxypyridin-4-yl)amino)pyridin-2-yl)amino)piperidine-1-carboxylate) and (3S,4R)-benzyl-4-amino-3-((5-carbamoyl-3-fluoro-6-((2-methoxypyridin-4-yl)amino)pyridin-2-yl)amino)piperidine-1-carboxylate(=1:1)] | 100 to 1000
29 | COc1cc(Nc2nc(NC3CCN(C(=O)OCc4ccccc4)CC3N)c(F)cc2C(N)=O)ccn1 [Example 006-530, (3S,4R)-benzyl 3-amino-4-((5-carbamoyl-3-fluoro-6-((2-methoxypyridin-4-yl)amino)pyridin-2-yl)amino)piperidine-1-carboylate and (3R,4S)-benzyl 3-amino-4-((5-carbamoyl-3-fluoro-6-((2-methoxypyridin-4-yl)amino)pyridin-2-yl)amino)piperidine-1-carboxylate(=1:1)] | < 10
